Values quoted from earlier work as cited in US4486414A, “Dolastatins A and B cell growth inhibitory substances” (Arizona Board of Reagents, priority 1983, dated 1984).

Legend:
[1] = system: murine P388 lymphocytic leukemia; settings: intraperitoneal doses of 11 μg/kg/day; cited from earlier work
[2] = system: murine B16 melanoma; settings: intraperitoneal doses of 11 μg/kg/day; cited from earlier work

In the case of dolastatin 1, the life extension [1] is listed as 88% and the curative response [2] is listed as 30%.
